# Measured values taken from US4835182A (priority 1987, dated 1989).
# Like-named read-outs stand apart in the source and are kept apart here.
# How the values were obtained:
# in vivo [1] = conditions: iv, 10 mg/kg
# in vivo [2] = test: in vivo
# [3] = in vivo
# [4] = background; cited from earlier work
Structure (SMILES),Kp (in vivo [1]),Kp (in vivo [2]),increase of brain/plasma concentration ratio of active drug versus chlorambucil [3] [%],entry into the brain [4]
O=C(O)CCCc1ccc(N(CCCl)CCCl)cc1 [chlorambucil],0.017,0.02,–,–
CC(C)(C)OC(=O)CCCc1ccc(N(CCCl)CCCl)cc1 [tertiary butyl chlorambucil],0.7,0.7,4100,–
N[C@@H](Cc1ccc(N(CCCl)CCCl)cc1)C(=O)O [melphalan],–,0.1,–,only minimally enter the brain
